Test results published in patent publication US20080153792A1, “Drug Identification and Treatment Method” (priority 2006, published 2008).

Tests used:
Format in all cases: in vivo, mouse
db/db C57BL/Ks mice = assay: glucose lowering in diabetic db/db mice
Experimental: Glucose lowering and amelioration of insulin resistance. Glucose lowering effects and amelioration of insulin resistance was assessed in the diabetic db/db mouse model of human diabetes and insulin resistance. In these studies, db/db C57BL/Ks mice of approximately 8 to 10 weeks of age were divided into groups of 10 each and then treated with a vehicle control (no drug) or 17α-ethynylandrost-5-ene-3β,7β,17β-triol by oral gavage. The compound was administered twice a day at 20 mg/kg/day (10 mg/kg dose administered twice per day), 40 mg/kg/day (20 mg/kg dose administered twice per day) or 80 mg/kg/day (40 mg/kg dose administered twice per day) for up to 28 days. Blood glucose levels were monitored twice a week during the dosing period, using a minute amount of blood (nick tail bleeds) to measure the concentration of glucose by glucometer strips. At specific times during the dosing period (day 14 and day 28), an oral glucose tolerance test (OGTT) was also performed by administering a standard oral dose of 1 g/kg glucose (approximately 40 mg in a […]) and then the fluctuation of blood glucose levels was monitored quickly thereafter after at 15, 30, 60 and 120 minutes after the glucose dose. […] Blood glucose approached 380 mg/dL in the vehicle control group and was <230 mg/dL after at least 10 days of dosing in the drug treated group.
A treatment protocol similar to that described in example 15 was performed with db/db mice that were younger than the animals described in example 15. The animals (n=8 to 10 per group) were treated with 17α-ethynylandrost-5-ene-3β,7β,17β-triol or vehicle by oral gavage twice per day at 40 mg/kg/day (20 mg/kg dose given twice per day) and 80 mg/kg/day (40 mg/kg dose given twice per day). At the start of dosing, the animals were 6 weeks of age, before the onset of elevated glucose levels or hyperglycemia. Dosing with vehicle or drug was maintained for 32 days to determine the effect of the treatments on the onset and rate of progression of hyperglycemia in the animals. In the control group, the onset of hyperglycemia was observed after 25 days of dosing and it continued to worsen, i.e., blood glucose levels rose from normal to frank hyperglycemia, through the end of the 32 day dosing period.

[1] = test system: DBA/1Lac/J mice, collagen induced arthritis; assay: collagen induced arthritis (CIA), Foxp3+ cells and clinical score
Experimental: Increase of CD4^+CD25^+ T regulatory cells or their activity in vivo. The compound 17α-ethynylandrost-5-ene-3β,7β,17β-triol was administered to mice essentially as described in a previously described collagen induced arthritis animal model. H. Offner et al., Clin. Immunol., 110:181-190, 2006.
DBA/1Lac/J mice were used for the study. The mice were obtained from Jackson Laboratories (Bar Harbor, Harbor, […].) and housed in accordance with applicable institutional guidelines. Bovine type II collagen (bCll) was used to induce collagen induced arthritis (CIA) by immunizing 8-week-old mice with 200 μg of bCII emulsified 1:1 with CFA containing 200 μg Mycobacterium tuberculosis (100 μL; Difco, Detroit, Mich.). The antigen was injected intradermally at the base of the tail. The animals were monitored for 4-7 weeks to observe the onset and progression of the disease post-immunization. The arthritic severity was evaluated with a grading system for each paw according to the following scale: 0=no redness or swelling; 1=slight swelling in ankle or redness in foot; 2=progressed swelling and inflammation and redness from ankle to mid foot; 3=swelling and inflammation of entire foot; 4=swelling and inflammation of entire foot including toes.
After immunization, the mice were treated with the drug at 40 mg/kg/day in vehicle by oral gavage beginning at the start of observable clinical disease (beginning at about 26-27 days after immunization). The vehicle that was used for the protocol was 30% cyclodextrin-sulfobutylether in water. The cyclodextrin-sulfobutylether was obtained commercially (Captisol™ available at cyclexinc.com). The drug formulation was 20 mg drug/mL in the vehicle.

[2] = test system: mice treated daily with dexamethasone; assay: osteoprotegerin levels in dexamethasone treated mice; conditions: vehicle, dexamethasone 10 μg/day and compound at 4 mg/kg/day; p<0.05
Experimental: Osteoprotegerin levels in mice that were treated with vehicle and dexamethasone at 10 μg/day (positive control group) had 3.3 pMol/L osteoprotegerin, while animals treated with vehicle, dexamethasone and 17α-ethynyl-5-androstene-3β,7β,17β-triol at 4 mg/kg/day had 6.4 pMol/L osteoprotegerin (p<0.05).

[3] = 40 mg/kg/day oral gavage from onset of clinical disease, n = 3

C#C[C@]1(O)CC[C@H]2[C@@H]3[C@@H](O)C=C4C[C@@H](O)CC[C@]4(C)[C@H]3CC[C@@]21C [17α-ethynylandrost-5-ene-3β,7β,17β-triol]
peak glycemic excursion in OGTT (db/db C57BL/Ks mice; 80 mg/kg b.i.d. for 28 days, 30-min post-oral glucose, vehicle approximately 400 mg/dL): < 200 mg/dL
progression into the hyperglycemic state (db/db C57BL/Ks mice; 6 week old male db/db mice, 40 mg/kg): completely blocked progression
basal blood glucose hyperglycemic levels (db/db C57BL/Ks mice; 8 week old male db/db mice, 40 mg/kg dose group, twice-a-day, apparent after 10 days): markedly suppressed
blood glucose (db/db C57BL/Ks mice; after at least 10 days of dosing, vehicle approached 380 mg/dL): < 230 mg/dL
levels of glucose by the end of the 32 day dosing period (db/db C57BL/Ks mice; db/db mice 6 weeks of age at start, 40 mg/kg/day and 80 mg/kg/day oral, twice per day): did not rise above normal levels
decrease in hyperglycemic blood glucose levels (db/db C57BL/Ks mice; db/db mice 8 to 10 weeks of age, oral gavage twice a day): approximately 40%
glucose intolerance in OGTTs compared to vehicle (db/db C57BL/Ks mice; treated db/db animals): significant amelioration of glucose intolerance
CD4^+Foxp3^+ cells in whole splenocytes [1, 3]: 1.34% ± 0.05
Total Foxp3^+ cells in whole splenocytes [1, 3]: 2.39% ± 0.16
Foxp3+ CD4^+ cells by cell sorter analysis ([1]; 40 mg/kg/day, control animals 1.0%): 1.4%
maximum mean clinical score ([1]; at day 34, vehicle about 6.8-8 between days 34-49): about 5
mean clinical score ([1]; by day 49): about 3
osteoprotegerin [2]: 6.4 pmol/L
